Assay results reported in ChEMBL document CHEMBL5678818, “Discovery of potent SOS1 inhibitors that block RAS activation via disruption of the RAS-SOS1 interaction” (Proc Natl Acad Sci U S A, 2019).

What was measured:
[1] = target: RAC-beta serine/threonine-protein kinase (Homo sapiens) (UniProt P31751); assay: Inhibition of AKT2 (unknown origin) assessed as residual activity at 1000 nM by KINOMEscan analysis relative to control
[2] = target: Macrophage colony-stimulating factor 1 receptor (Homo sapiens) (UniProt P07333); assay: Inhibition of autoinhibited CSF1R (unknown origin) assessed as residual activity at 1000 nM by KINOMEscan analysis relative to control
[3] = target: T1, Ephrin type-A receptor 6 (Homo sapiens) (UniProt Q9UF33); assay: Inhibition of EPHA6 (unknown origin) assessed as residual activity at 1000 nM by KINOMEscan analysis relative to control
T1 sequence (whole entry): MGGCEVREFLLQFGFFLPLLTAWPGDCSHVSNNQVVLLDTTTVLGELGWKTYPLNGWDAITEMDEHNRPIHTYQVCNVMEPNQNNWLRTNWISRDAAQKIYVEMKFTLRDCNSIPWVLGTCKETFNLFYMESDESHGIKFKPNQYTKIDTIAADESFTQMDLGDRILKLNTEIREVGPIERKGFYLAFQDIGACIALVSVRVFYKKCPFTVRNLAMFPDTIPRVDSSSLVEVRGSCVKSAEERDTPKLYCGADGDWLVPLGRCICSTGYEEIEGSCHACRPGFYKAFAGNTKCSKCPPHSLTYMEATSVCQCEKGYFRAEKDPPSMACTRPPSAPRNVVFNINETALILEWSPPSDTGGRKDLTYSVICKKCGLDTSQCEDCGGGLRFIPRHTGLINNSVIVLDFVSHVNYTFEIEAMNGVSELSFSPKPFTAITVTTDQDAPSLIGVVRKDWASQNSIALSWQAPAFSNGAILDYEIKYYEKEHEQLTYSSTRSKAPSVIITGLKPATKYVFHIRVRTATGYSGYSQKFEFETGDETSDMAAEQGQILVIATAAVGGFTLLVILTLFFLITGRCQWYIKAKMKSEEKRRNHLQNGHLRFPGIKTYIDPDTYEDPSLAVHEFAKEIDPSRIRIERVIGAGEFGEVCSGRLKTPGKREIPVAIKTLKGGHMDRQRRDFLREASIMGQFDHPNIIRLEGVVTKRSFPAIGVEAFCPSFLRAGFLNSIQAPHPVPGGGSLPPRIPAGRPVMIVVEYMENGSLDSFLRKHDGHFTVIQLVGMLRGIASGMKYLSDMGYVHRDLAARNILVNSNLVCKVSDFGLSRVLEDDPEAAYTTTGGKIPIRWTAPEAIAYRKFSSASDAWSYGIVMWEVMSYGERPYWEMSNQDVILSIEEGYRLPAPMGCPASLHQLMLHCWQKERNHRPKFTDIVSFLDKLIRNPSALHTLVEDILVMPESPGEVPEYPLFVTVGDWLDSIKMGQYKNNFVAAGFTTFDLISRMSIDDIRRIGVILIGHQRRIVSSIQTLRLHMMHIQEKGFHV

Homo sapiens = species on record: Homo sapiens; assay: Inhibition of JNK1 (unknown origin) assessed as residual activity at 1000 nM by KINOMEscan analysis relative to control
[4] = target: T2, Mitogen-activated protein kinase kinase kinase 15 (Homo sapiens) (UniProt Q6ZN16); assay: Inhibition of MAP3K15 (unknown origin) assessed as residual activity at 1000 nM by KINOMEscan analysis relative to control
T2 sequence (whole entry): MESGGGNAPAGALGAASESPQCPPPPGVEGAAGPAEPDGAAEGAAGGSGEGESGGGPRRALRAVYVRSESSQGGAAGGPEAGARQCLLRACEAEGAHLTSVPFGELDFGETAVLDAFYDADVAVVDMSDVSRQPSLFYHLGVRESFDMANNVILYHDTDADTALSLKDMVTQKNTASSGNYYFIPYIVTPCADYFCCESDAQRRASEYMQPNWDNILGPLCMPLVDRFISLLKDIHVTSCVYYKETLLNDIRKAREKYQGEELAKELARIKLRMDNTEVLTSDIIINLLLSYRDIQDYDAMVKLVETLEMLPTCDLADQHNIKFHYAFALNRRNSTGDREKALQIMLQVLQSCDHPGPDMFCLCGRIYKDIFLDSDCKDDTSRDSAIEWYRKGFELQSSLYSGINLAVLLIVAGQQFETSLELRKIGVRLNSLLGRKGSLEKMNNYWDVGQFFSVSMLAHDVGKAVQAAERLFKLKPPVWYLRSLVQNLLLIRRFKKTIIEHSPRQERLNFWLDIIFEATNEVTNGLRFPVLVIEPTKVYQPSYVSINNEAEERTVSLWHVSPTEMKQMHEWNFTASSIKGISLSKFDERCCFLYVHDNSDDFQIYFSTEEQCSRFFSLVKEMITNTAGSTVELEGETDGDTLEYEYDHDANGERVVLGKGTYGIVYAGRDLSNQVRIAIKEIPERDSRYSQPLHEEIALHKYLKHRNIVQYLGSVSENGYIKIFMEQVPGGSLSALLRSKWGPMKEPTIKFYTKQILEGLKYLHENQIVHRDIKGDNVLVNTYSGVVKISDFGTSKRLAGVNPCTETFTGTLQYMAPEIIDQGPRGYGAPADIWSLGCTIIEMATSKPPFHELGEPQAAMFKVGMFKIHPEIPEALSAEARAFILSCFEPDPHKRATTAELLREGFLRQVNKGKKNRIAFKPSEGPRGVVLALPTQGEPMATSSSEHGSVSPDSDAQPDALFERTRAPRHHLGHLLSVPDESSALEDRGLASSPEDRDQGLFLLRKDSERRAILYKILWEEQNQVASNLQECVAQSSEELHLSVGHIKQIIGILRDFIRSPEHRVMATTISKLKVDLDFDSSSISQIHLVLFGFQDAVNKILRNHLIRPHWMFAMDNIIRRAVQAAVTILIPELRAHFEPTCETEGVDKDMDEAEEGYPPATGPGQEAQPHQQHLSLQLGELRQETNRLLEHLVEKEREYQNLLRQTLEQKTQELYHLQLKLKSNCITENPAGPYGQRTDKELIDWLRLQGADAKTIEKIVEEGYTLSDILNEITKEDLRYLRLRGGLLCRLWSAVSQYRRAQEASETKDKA

[5] = target: Serine/threonine-protein kinase Nek4 (Homo sapiens) (UniProt P51957); assay: Inhibition of NEK4 (unknown origin) assessed as residual activity at 1000 nM by KINOMEscan analysis relative to control
[6] = target: Serine/threonine-protein kinase pim-1 (Homo sapiens) (UniProt P11309); assay: Inhibition of PIM1 (unknown origin) assessed as residual activity at 1000 nM by KINOMEscan analysis relative to control
[7] = target: Serine/threonine-protein kinase N2 (Homo sapiens) (UniProt Q16513); assay: Inhibition of PKN2 (unknown origin) assessed as residual activity at 1000 nM by KINOMEscan analysis relative to control
[8] = target: BDNF/NT-3 growth factors receptor (Homo sapiens) (UniProt Q16620); assay: Inhibition of TRKB (unknown origin) assessed as residual activity at 1000 nM by KINOMEscan analysis relative to control
BDNF/NT-3 growth factors receptor (Homo sapiens), sequence (Q16620 32-822 limits assumed): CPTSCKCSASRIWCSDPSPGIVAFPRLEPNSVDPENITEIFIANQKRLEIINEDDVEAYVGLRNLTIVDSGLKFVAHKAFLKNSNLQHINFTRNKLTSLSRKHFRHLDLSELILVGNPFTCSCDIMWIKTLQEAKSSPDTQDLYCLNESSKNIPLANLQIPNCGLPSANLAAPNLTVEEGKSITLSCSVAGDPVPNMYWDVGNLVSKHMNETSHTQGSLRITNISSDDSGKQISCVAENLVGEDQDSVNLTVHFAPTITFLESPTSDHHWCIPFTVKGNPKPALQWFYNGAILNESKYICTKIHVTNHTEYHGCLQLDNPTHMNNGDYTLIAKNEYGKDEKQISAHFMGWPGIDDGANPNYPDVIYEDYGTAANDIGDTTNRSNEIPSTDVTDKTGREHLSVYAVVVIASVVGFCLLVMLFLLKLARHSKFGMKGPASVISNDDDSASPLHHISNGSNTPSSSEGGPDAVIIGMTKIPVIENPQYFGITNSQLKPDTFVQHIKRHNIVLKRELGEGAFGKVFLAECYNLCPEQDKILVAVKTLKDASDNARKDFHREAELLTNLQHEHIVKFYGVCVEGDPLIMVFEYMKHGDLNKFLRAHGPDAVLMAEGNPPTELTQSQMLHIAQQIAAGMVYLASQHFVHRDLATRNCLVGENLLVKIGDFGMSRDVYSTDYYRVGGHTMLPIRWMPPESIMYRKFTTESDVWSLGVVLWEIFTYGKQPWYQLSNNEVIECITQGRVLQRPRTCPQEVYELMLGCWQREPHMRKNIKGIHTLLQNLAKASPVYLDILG

RAC-beta serine/threonine-protein kinase (Homo sapiens), sequence (P31751 whole entry): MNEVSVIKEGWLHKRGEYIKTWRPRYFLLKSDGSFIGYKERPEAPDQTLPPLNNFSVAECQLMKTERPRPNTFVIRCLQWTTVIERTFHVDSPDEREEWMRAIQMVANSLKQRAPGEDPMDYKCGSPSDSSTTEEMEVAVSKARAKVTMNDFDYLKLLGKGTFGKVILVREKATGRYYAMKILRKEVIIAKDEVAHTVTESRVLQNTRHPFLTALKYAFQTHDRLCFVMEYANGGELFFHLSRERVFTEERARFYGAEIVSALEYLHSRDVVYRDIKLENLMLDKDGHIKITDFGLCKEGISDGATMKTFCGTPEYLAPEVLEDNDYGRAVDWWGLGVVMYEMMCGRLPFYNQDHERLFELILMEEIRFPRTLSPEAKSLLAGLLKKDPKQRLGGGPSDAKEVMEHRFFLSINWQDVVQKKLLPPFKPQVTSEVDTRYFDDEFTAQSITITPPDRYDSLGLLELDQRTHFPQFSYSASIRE
Macrophage colony-stimulating factor 1 receptor (Homo sapiens), sequence (P07333 whole entry): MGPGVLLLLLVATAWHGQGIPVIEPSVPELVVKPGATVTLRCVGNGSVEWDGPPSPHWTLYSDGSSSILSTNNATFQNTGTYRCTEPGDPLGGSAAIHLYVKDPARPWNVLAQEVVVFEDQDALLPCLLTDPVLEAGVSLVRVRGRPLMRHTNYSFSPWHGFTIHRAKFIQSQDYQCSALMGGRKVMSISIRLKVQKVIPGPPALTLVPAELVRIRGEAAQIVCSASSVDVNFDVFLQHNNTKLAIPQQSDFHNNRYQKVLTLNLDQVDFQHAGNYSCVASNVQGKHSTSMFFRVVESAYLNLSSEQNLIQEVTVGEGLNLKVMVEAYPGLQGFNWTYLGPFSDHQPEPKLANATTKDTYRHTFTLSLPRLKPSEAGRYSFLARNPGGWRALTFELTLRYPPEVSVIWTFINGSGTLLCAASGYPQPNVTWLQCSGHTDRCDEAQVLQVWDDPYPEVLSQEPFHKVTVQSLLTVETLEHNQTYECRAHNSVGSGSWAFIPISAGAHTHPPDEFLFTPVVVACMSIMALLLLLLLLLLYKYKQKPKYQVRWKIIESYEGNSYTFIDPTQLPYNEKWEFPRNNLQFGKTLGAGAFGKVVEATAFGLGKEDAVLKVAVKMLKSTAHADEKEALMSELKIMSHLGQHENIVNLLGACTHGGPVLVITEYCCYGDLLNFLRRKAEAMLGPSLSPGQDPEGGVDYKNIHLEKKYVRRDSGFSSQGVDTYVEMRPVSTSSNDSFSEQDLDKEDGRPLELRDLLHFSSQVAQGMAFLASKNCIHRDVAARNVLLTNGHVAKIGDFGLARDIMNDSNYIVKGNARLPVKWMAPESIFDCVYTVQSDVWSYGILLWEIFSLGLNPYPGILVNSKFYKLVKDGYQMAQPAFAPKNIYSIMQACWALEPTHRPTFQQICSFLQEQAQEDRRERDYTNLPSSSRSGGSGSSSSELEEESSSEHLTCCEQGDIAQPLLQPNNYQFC
Serine/threonine-protein kinase pim-1 (Homo sapiens), sequence (P11309 whole entry, looked up): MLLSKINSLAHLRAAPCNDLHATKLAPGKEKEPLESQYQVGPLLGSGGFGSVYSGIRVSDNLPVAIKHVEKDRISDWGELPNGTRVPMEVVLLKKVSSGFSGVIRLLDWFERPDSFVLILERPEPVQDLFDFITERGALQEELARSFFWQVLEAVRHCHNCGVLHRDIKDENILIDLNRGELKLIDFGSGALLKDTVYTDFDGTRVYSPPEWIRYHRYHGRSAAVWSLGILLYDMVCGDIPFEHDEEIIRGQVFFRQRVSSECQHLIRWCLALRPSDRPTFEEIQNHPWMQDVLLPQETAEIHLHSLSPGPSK
Serine/threonine-protein kinase Nek4 (Homo sapiens), sequence (P51957 whole entry, looked up): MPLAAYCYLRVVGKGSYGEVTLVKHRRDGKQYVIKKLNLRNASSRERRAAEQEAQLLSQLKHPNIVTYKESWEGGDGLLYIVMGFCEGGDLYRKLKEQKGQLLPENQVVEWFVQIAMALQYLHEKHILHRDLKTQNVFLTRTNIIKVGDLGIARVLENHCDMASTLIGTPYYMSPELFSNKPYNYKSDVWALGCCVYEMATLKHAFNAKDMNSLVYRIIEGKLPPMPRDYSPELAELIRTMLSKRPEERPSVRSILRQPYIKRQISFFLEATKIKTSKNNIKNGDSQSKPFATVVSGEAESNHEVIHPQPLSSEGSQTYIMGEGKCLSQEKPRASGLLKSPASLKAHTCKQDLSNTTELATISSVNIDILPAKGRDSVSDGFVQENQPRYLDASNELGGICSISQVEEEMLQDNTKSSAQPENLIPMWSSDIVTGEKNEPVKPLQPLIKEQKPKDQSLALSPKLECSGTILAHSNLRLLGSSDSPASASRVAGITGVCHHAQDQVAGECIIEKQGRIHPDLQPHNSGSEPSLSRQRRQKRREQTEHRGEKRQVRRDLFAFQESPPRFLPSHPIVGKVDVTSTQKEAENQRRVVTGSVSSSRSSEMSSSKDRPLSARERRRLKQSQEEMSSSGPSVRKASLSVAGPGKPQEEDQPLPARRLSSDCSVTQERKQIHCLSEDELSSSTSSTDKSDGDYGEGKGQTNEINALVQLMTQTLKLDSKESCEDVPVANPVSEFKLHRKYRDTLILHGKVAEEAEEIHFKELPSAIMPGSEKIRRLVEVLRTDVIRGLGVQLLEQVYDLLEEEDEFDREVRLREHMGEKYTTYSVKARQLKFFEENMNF
Serine/threonine-protein kinase N2 (Homo sapiens), sequence (Q16513 whole entry, looked up): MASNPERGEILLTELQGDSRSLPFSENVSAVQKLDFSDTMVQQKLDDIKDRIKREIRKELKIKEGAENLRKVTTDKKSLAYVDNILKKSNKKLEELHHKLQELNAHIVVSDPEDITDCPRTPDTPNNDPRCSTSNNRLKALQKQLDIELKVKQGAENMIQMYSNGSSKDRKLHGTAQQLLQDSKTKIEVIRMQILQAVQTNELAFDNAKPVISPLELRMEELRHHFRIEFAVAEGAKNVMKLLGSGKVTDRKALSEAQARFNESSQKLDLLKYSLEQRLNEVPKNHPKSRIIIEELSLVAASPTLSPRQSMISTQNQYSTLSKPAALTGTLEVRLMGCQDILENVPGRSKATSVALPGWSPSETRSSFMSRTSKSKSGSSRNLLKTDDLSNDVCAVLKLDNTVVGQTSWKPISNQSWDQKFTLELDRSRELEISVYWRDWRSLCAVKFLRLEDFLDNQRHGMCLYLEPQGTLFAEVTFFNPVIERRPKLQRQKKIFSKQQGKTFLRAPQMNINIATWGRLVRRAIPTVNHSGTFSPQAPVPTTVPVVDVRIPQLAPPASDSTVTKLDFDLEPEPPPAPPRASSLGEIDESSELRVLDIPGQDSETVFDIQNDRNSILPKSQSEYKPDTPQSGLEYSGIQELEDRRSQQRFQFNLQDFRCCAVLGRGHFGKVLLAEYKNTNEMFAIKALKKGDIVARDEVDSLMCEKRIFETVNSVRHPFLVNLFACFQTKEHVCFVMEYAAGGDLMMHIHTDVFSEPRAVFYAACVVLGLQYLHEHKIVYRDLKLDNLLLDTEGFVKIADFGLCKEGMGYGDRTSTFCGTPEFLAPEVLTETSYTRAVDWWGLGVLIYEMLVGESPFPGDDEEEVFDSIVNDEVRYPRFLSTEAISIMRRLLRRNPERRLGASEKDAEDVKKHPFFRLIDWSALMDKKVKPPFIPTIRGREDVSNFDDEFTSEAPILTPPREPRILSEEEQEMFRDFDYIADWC

Compound	Activity [1] [%]	Activity [2] [%]	Activity [3] [%]	Activity (Homo sapiens) [%]	Activity [4] [%]	Activity [5] [%]	Activity [6] [%]	Activity [7] [%]	Activity [8] [%]
COc1cc2nc(C)nc(N[C@H](C)c3cccc(-c4cn[nH]c4)c3)c2cc1OC	99	97	96	64	63	81	79	78	98
COc1cc2ncnc(N[C@H](C)c3cccc4ccccc34)c2cc1OC	100	93	88	100	80	90	98	100	100
